The values that follow come from PubChem BioAssay AID180 (DTP/NCI, 2004).

The subject of the assay is BDF1 mice, Adenocarcinoma 755 s.c., tumor weight T/C. Put plainly: NCI In Vivo Anticancer Drug Screen. Data for tumor model Adenocarcinoma 755 (subcutaneous) in B6D2F1 (BDF1) mice. The conditions noted are these: endpoint: mean tumor weight, higher = larger tumour. Summed up:
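Readout: T/C, i.e. treated-group measurement over vehicle-control measurement. Endpoint is survival or tumor size in tumor-bearing mice given compound.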

Where [1] appears, read: dose: 75.0 mg/kg/injection, schedule: Q01DX011 (ip), vehicle: methylcellulose (MC).
[2] abbreviates: dose: 15.0 mg/kg/injection, schedule: Q01DX011 (ip), vehicle: methylcellulose (MC).
Where [3] appears, read: dose: 30.0 mg/kg/injection, schedule: Q01DX011 (ip), vehicle: methylcellulose (MC).
Where [4] appears, read: dose: 75.0 mg/kg/injection, schedule: Q01DX011 (ip), vehicle: carboxymethylcellulose (CMC).

The structures appear in SMILES notation. “And” between values parts separate entries of the source, which are not always exact repeats. Equal entries are not always repeated.

Regarding `CS(C)=O`, the T/C (commonly the result in the treated group divided by that in the control group, in per cent) (dose: 1000.0 mg/kg/injection, schedule: Q01DX011 (ip), vehicle: other) is 71 % of control; the T/C (dose: 1000.0 mg/kg/injection, schedule: Q#A X022 (ip), vehicle: other) is 25 % of control; the T/C (dose: 1500.0 mg/kg/injection, schedule: Q01DX011 (ip), vehicle: other) is 115 % of control; the T/C (dose: 1500.0 mg/kg/injection, schedule: Q#A X022 (ip), vehicle: other) is 67 % of control.
As for `O=C(/C=C/C(=O)c1ccccc1)c1ccccc1`, the T/C reads like this: (dose: 65.0 mg/kg/injection, schedule: Q01DX011 (ip), vehicle: other) 76 % of control; (dose: 90.0 mg/kg/injection, schedule: Q01DX011 (ip), vehicle: other) 59 % of control; (dose: 125.0 mg/kg/injection, schedule: Q01DX011 (ip), vehicle: other) 51 % of control.
As for `O=c1[nH]c2[nH]c(S(=O)(=O)O)nc(=S)c2[nH]1`, the T/C is, setting by setting: under setting [1], 43 % of control; (dose: 150.0 mg/kg/injection, schedule: Q01DX011 (ip), vehicle: methylcellulose (MC)) 55 % of control; (dose: 300.0 mg/kg/injection, schedule: Q01DX011 (ip), vehicle: methylcellulose (MC)) 67 % of control; (dose: 600.0 mg/kg/injection, schedule: Q01DX011 (ip), vehicle: methylcellulose (MC)) 28 % of control.
`CC(=O)Nc1nc(SCc2ccccc2)c2ncn(C(C)=O)c2n1`: the T/C (dose: 7.5 mg/kg/injection, schedule: Q01DX011 (ip), vehicle: methylcellulose (MC)) was 53 % of control; the T/C under setting [2] is 4 % of control; the T/C under setting [3] was 2 % of control.
Consider `CN(CC#N)/N=N/c1nc[nH]c1C(N)=O`, for which the T/C was 108 % of control (dose: 37.0 mg/kg/injection, schedule: Q01DX011 (ip), vehicle: carboxymethylcellulose (CMC)) and 73 % of control under setting [4].
For `COc1ccc(-c2c(C)c(C(=O)O)nc(-c3ccc4c(O)c(OC)c5c(c4n3)=NC(C)(C)N=5)c2N)c(O)c1OC`, the T/C (dose: 2.5 mg/kg/injection, schedule: Q01DX011 (ip), vehicle: water) was 26 % of control; the T/C (dose: 2.5 mg/kg/injection, schedule: Q01DX011 (oral), vehicle: water) is 6 % of control; the T/C (dose: 2.5 mg/kg/injection, schedule: Q## X006 (ip), vehicle: water) is 59 % of control; the T/C (dose: 2.5 mg/kg/injection, schedule: Q## X006 (oral), vehicle: water) was 43 % of control; the T/C (dose: 2.5 mg/kg/injection, schedule: Q#A X022 (ip), vehicle: water) is 51 % of control; the T/C (dose: 5.0 mg/kg/injection, schedule: Q01DX005 (iv), vehicle: water) was 58 % of control. The T/C reads like this: (dose: 5.0 mg/kg/injection, schedule: Q01DX006 (ip), vehicle: water) 64 % of control; (dose: 5.0 mg/kg/injection, schedule: Q01DX011 (im), vehicle: water) 64 % of control; (dose: 5.0 mg/kg/injection, schedule: Q01DX011 (ip), vehicle: water) 5 % of control; (dose: 5.0 mg/kg/injection, schedule: Q01DX011 (oral), vehicle: water) 2 % of control; (dose: 5.0 mg/kg/injection, schedule: Q01DX011 (sc), vehicle: water) 13 % of control; (dose: 5.0 mg/kg/injection, schedule: Q## X006 (ip), vehicle: water) 57 % of control. Moreover, the T/C was 79 % of control (dose: 5.0 mg/kg/injection, schedule: Q## X006 (oral), vehicle: water); 21 % of control (dose: 5.0 mg/kg/injection, schedule: Q#A X022 (ip), vehicle: water); 63 % of control (dose: 7.5 mg/kg/injection, schedule: Q01DX006 (ip), vehicle: water); 9 % of control (dose: 7.5 mg/kg/injection, schedule: Q#A X022 (ip), vehicle: water); 50 % of control (dose: 8.0 mg/kg/injection, schedule: Q01DX011 (ip), vehicle: water); 26 % of control (dose: 10.0 mg/kg/injection, schedule: Q01DX005 (iv), vehicle: water). For the same compound, the T/C reads like this: (dose: 10.0 mg/kg/injection, schedule: Q01DX006 (ip), vehicle: water) 28 % of control; (dose: 10.0 mg/kg/injection, schedule: Q01DX011 (im), vehicle: water) 13 % of control; (dose: 10.0 mg/kg/injection, schedule: Q01DX011 (sc), vehicle: water) 15 % of control; (dose: 10.0 mg/kg/injection, schedule: Q## X006 (ip), vehicle: water) 19 % of control; (dose: 10.0 mg/kg/injection, schedule: Q## X006 (oral), vehicle: water) 44 % of control; (dose: 12.0 mg/kg/injection, schedule: Q03DX004 (ip), vehicle: water) 62 % of control. The T/C by setting is: (dose: 13.0 mg/kg/injection, schedule: Q01DX011 (ip), vehicle: water) 10 % of control; (dose: 15.0 mg/kg/injection, schedule: Q01DX005 (iv), vehicle: water) 6 % of control; (dose: 15.0 mg/kg/injection, schedule: Q01DX011 (im), vehicle: water) 10 % of control; (dose: 15.0 mg/kg/injection, schedule: Q01DX011 (sc), vehicle: water) 4 % of control; (dose: 18.0 mg/kg/injection, schedule: Q03DX004 (ip), vehicle: water) 38 % of control; (dose: 20.0 mg/kg/injection, schedule: Q01DX011 (ip), vehicle: water) 6 % of control. Besides, the T/C is 39 % of control (dose: 20.0 mg/kg/injection, schedule: Q## X006 (ip), vehicle: water); 20 % of control (dose: 20.0 mg/kg/injection, schedule: Q## X006 (oral), vehicle: water); 48 % of control (dose: 22.0 mg/kg/injection, schedule: Q07DX002 (ip), vehicle: water); 2 % of control (dose: 22.5 mg/kg/injection, schedule: Q01DX005 (iv), vehicle: water); 1 % of control (dose: 22.5 mg/kg/injection, schedule: Q01DX011 (im), vehicle: water); 4 % of control (dose: 27.0 mg/kg/injection, schedule: Q03DX004 (ip), vehicle: water). In addition, the T/C is 45 % of control and 50 % of control (dose: 34.0 mg/kg/injection, schedule: Q01DX001 (ip), vehicle: water); 55 % of control (dose: 35.0 mg/kg/injection, schedule: Q07DX002 (ip), vehicle: water); 52 % of control and 57 % of control (dose: 44.0 mg/kg/injection, schedule: Q01DX001 (ip), vehicle: water); 8 % of control (dose: 50.0 mg/kg/injection, schedule: Q07DX002 (ip), vehicle: water); 18 % of control (dose: 67.0 mg/kg/injection, schedule: Q01DX001 (ip), vehicle: water).
As for `CCSc1nc(N)nc2c1ncn2C1OC(CO)C(O)C1O` (stereo unspecified), the T/C runs as follows: (dose: 9.3 mg/kg/injection, schedule: Q01DX011 (ip), vehicle: methylcellulose (MC)) 55 % of control; (dose: 18.7 mg/kg/injection, schedule: Q01DX011 (ip), vehicle: methylcellulose (MC)) 39 % of control; (dose: 37.5 mg/kg/injection, schedule: Q01DX011 (ip), vehicle: methylcellulose (MC)) 3 % of control; under setting [1], 4 % of control.
For `CCOC(=O)n1cnc2ncnc(SC)c21`, the T/C by setting is: (dose: 5.0 mg/kg/injection, schedule: Q01DX011 (ip), vehicle: carboxymethylcellulose (CMC)) 59 % of control; (dose: 10.0 mg/kg/injection, schedule: Q01DX011 (ip), vehicle: carboxymethylcellulose (CMC)) 80 % of control; (dose: 12.5 mg/kg/injection, schedule: Q01DX011 (ip), vehicle: carboxymethylcellulose (CMC)) 48 % of control; (dose: 25.0 mg/kg/injection, schedule: Q01DX011 (ip), vehicle: carboxymethylcellulose (CMC)) 15 % of control; (dose: 50.0 mg/kg/injection, schedule: Q01DX011 (ip), vehicle: carboxymethylcellulose (CMC)) 7 % of control; (dose: 100.0 mg/kg/injection, schedule: Q01DX011 (ip), vehicle: carboxymethylcellulose (CMC)) 5 % of control. The T/C (dose: 200.0 mg/kg/injection, schedule: Q01DX011 (ip), vehicle: carboxymethylcellulose (CMC)) is 5 % of control.
Turning to `Cn1c(N)cc(=O)[nH]c1=S`, the T/C reads like this: (dose: 3.5 mg/kg/injection, schedule: Q01DX011 (ip), vehicle: methylcellulose (MC)) 98 % of control; (dose: 7.0 mg/kg/injection, schedule: Q01DX011 (ip), vehicle: methylcellulose (MC)) 40 % of control; under setting [2], 65 % of control; under setting [3], 79 % of control; (dose: 60.0 mg/kg/injection, schedule: Q01DX011 (ip), vehicle: methylcellulose (MC)) 29 % of control.
Take `CCCCCCCCCCCCCCCCC(C(=O)O)C(O)(CC(=O)O)C(=O)O` (stereo unspecified): the T/C (dose: 19.0 mg/kg/injection, schedule: Q01DX011 (ip), vehicle: carboxymethylcellulose (CMC)) was 96 % of control; the T/C (dose: 37.5 mg/kg/injection, schedule: Q01DX011 (ip), vehicle: carboxymethylcellulose (CMC)) is 49 % of control; the T/C under setting [4] was 59 % of control.
